One assay deals with S. aureus ATCC: 27660. Type of assay: cell-based, Staphylococcus aureus. The protocol: (§1) Each bacterial strain was streaked onto LB–Miller agar (BD-Difco, Franklin Lakes, NJ, USA) plates from a frozen stock collection (E. coli D31 [63] S. aureus ATCC: 27660, B. subtilis ATCC: 6051, P. aeruginosa PAO1 [17], and A. baumannii ATCC: 19606). After incubation to allow colony growth, plates stored in a refrigerator at 4 °C. Overnight cultures were inoculated with a single colony of each bacterial strain into fresh LB or Mueller Hinton broth (MH, BD-Difco) in sterile glass test tubes. Inoculated samples were placed in a 37 °C shaking incubator (250 rpm) for ~18 h. After the overnight incubation, a 1:200 dilution of the culture was made in fresh LB or MH for use in subsequent experiments.
(§2) Bacterial growth inhibition was investigated using the standard minimal inhibitory concentration (MIC) assay. Cultures of bacteria were grown as described above, subsequently diluted to ~10^5 cfu/mL in MH media. Subsequently, 90 μL of this diluted culture was added to wells of a sterile 96-well plate containing serially diluted aliquots of the peptides for a final volume in the well of 100 μL. The plate was covered and incubated at 37 °C for 18 h. After incubation the OD600 was measured with a Spectramax M5 multimode plate reader. Next, the minimal bactericidal concentration (MBC) was determined by taking 1 μL of culture from each well on the plate corresponding to peptide concentrations at and above the MIC and plating on a fresh LB-agar plate. The plate incubated overnight at 37 °C, and MBC was determined from the presence or absence of growth on each spot.

A further assay has as its system E. coli outer membrane. The assay can be described thus: E. coli outer membrane permeabilization (β-lactamase / nitrocefin). Format: cell-based. Particulars: E. coli D31 in PBS, peptide up to 15 µM, 30 min exposure, absorbance 486 nm, at least 3 replicates. The protocol:
Permeabilization of the E. coli outer membrane is monitored using the periplasmic enzyme β-lactamase and the chromogenic substrate nitrocefin. […] The full time course of the permeabilization assay is shown in the supplementary files (Figure S1).
(§3) Figure 4 E. coli membrane permeabilization. Chromogenic substrate breakdown after 30 min of exposure to peptides. (A) Outer membrane permeabilization assayed by nitrocefin breakdown. (B) Inner membrane permeabilization assayed by ONPG breakdown. In both panels colors represent C18G (green), C18G-Arg (red), C18G-His (gray), C18G-Orn (orange), C18G-Dap (blue).
Permeabilization of the E. coli outer membrane was performed as described previously. Briefly, a single colony of E. coli D31 was inoculated in LB Broth (Difco) containing […] ampicillin and allowed to grow at 37 °C with shaking overnight. The culture was diluted 1:200 in LB-Amp and incubated at 37 °C until the OD600 was ~0.2. The culture was subsequently centrifuged at 2500 rpm for 15 min. The pellet was resuspended in an equal volume of PBS and added to a 96-well plate containing serially diluted peptides or polymyxin B (positive control). Immediately before reading, nitrocefin was added to the wells (final concentration 0.25 mg/mL) and mixed by pipetting. The sample absorbance was measured at 486 nm for 90 min. All assays were performed at least in triplicate.

The subject of a further assay is E. coli inner membrane. The assay can be described thus: E. coli inner membrane permeabilization (β-galactosidase / ONPG). Particulars: peptide up to 15 µM, 30 min time point, absorbance 420 nm, at least 3 replicates. Format: cell-based. The protocol: as §3
Permeabilization of the E. coli inner membrane is monitored with the cytoplasmic enzyme β-galactosidase and the chromogenic substrate ortho-nitrophenyl-β-galactoside (ONPG). This assay in conceptually similar to the outer membrane assay described above, but is focused only on the permeability of the inner membrane. The results are shown in Figure 4B for the 30 min time point of the assay, and the full time course is shown in the supplementary figures (Figure S2).
Inner membrane permeabilization was performed as described previously. The procedure follows that of the outer membrane permeabilization assay, described above, with several modifications. Bacteria were grown overnight in LB media lacking Amp, and dilutions were made in LB supplemented with IPTG. Assay plates were prepared the same, except that cells were not centrifuged before the assay, and were added to the plate directly in the culture medium. Positive control for the inner membrane assay was the cationic detergent CTAB. The substrate was ONPG dissolved in Z-buffer added to a final concentration 0.6 mg/mL in the wells. The sample absorbance was measured at 420 nm for 90 min. All assays were performed at least in triplicate

The subject of another assay is B. subtilis ATCC: 6051. Type of assay: cell-based, Bacillus subtilis. The protocol: as §1, §2
The nature of assay [1]: Trp fluorescence binding to lipid vesicles. Particulars: 2 µM peptide in PBS pH 7.0 titrated with SUVs up to 300 µM lipid, excitation 280 nm, 2-5 replicates. From the text:
Based on the proposed mechanism of membrane disruption, the ability of the C18G peptides to interact with lipid vesicles was investigated. All of the sequences contain a Trp residue which can be used as a reporter of the local environment. As the peptide moves from the aqueous milieu to the bilayer surface, the Trp experiences a significant change in the polarity of the local environment. This change in environmental polarity results in a shift of the Trp emission spectrum from more red-shifted (aqueous) to more blue-shifted (bilayer bound). […] The shift in the emission spectrum can be quantified by changes in […] (λmax) or by a shift in the spectral barycenter.
Figure 2 Trp fluorescence emission to measure peptide binding to vesicles. […] Trp emission barycenter was calculated after each addition of vesicles and plotted as a function of total lipid concentration. […]
Measurements were performed on a JY-Horiba fluoromax4 instrument with emission and excitation slits set to 2.5 nm. For lipid binding/titration assays, samples were excited at 280 nm with emission measured over the range of 300–400 nm. […] The barycenter of the spectrum is an intensity-weighted average over the wavelengths measured, and Δbarycenter is the difference between the barycenter of the sample lacking lipid, and that of a given sample [32, 65]. […]

The next assay has as its system S. aureus membrane. The assay can be described thus: S. aureus membrane permeabilization (propidium iodide, flow cytometry). Format: cell-based. The conditions noted are these: 30 min, relative to CTAB positive control. The protocol: The membrane architecture varies greatly between Gram-positive and Gram-negative bacteria. The ability of the peptides to permeabilize a Gram-positive bacterial membrane was also investigated; however, in this case, the use of a bacterial enzyme and chromogenic substrate was not possible. Instead, membrane permeability was assessed using the DNA binding fluorophore propidium iodide (PI). The PI molecule is generally impermeable across the cell membrane under normal conditions, but upon permeabilization, PI can readily cross the membrane and bind to DNA, resulting in a dramatic increase in fluorescence emission intensity.
Figure 5 Membrane permeabilization. (A) Permeabilization of S. aureus membranes by peptides. Cultures of S. aureus were incubated with varying concentrations of peptide and 3.75 µg/mL propidium iodide (PI). PI fluorescence was measured via flow cytometry after 30 min of exposure to peptides. Percent leakage was determined based on the positive control CTAB (data not shown). (B) Peptide induced hemolysis. Defibrinated sheep red blood cells were incubated for 1 h with varying concentrations of peptide or control at 37 °C in sterile PBS. After pelleting the remaining cells, the absorbance of the supernatant was measured at 415 nm to detect released hemoglobin. Percent leakage was determined based on the positive control CTAB (Figure S3). All data is the average of at least 3 replicates, where error bars represent the standard deviation.
Flow cytometry was used to identify cell permeability by incorporation of propidium iodide (PI) into S. aureus under various concentrations of CTAB detergent, C18G, C18G-Arg, C18G-His, C18G-Orn, C18G-Dap peptides using a BD FACSCelesta flow cytometer. Approximately 10,000 cells per sample in 100 µL of PBS, permeabilization reagent, and PI 5.6 μM solution, were incubated for 30 min or 45 min at 23 °C counted in duplicate, and fluorescent signal was evaluated Ex 488 nm laser, Em 575 filter. Percentage of cells found to be permeable for all samples was established by gating around cells on histogram illustrating PI signal with known complete permeabilization CTAB 102 µM.

Where [2] appears, read: MH media, ~10^5 cfu/mL, 37 °C, 18 h, OD600.

Where two headings read alike, the source gives them in different places. Non-standard residues stand in square brackets, D forms with d. Residues, ends and D or L forms follow the SMILES beside them. No end group written: not given here. Dap = NC[C@H](N)C(=O)O

In the case of `CC(C)C[C@H](NC(=O)[C@H](C)N)C(=O)N[C@@H](Cc1c[nH]c2ccccc12)C(=O)N[C@@H](CN)C(=O)N[C@@H](CN)C(=O)N[C@@H](CC(C)C)C(=O)N[C@@H](CC(C)C)C(=O)N[C@@H](CN)C(=O)N[C@@H](CN)C(=O)N[C@@H](CC(C)C)C(=O)N[C@@H](CC(C)C)C(=O)N[C@@H](CN)C(=O)N[C@@H](CO)C(=O)N[C@@H](C)C(=O)N[C@@H](CN)C(=O)N[C@@H](CN)C(=O)N[C@@H](CC(C)C)C(=O)NCC(N)=O` [C18G-Dap] (H-ALW[Dap][Dap]LL[Dap][Dap]LL[Dap]SA[Dap][Dap]LG-NH2), in the assay on S. aureus ATCC: 27660 (ATCC: 27660, 18 h), the “S. aureus MBC” value is reported as 7.5 µM and the “S. aureus MIC” value is listed as 7.5 µM. Also, in the assay on S. aureus ATCC: 27660 (against S. aureus), the “Fold increase in MIC relative to the parent sequence” value is no more than 4 fold. The “Outer membrane permeabilization (nitrocefin breakdown)” value (“Outer membrane permeabilization” for short) with E. coli outer membrane is “permeabilization to a lesser extent”. In the assay with E. coli inner membrane, the “Inner membrane permeabilization (ONPG breakdown)” value (from here on “Inner membrane permeabilization”) is recorded as “little to no permeabilization”. Also, in the assay with B. subtilis ATCC: 6051 (ATCC: 6051, 18 h), the “B. subtilis MBC” value amounted to 1.875 µM and the “B. subtilis MIC” value amounted to 1.875 µM.

Turning to ALWRRLLRRLLRSARRLG-NH2 [C18G-Arg], the “Binding to 100% PC lipid vesicles (shift of Trp emission barycenter)” value in assay [1] is reported as “significant increase in binding to zwitterionic PC membranes compared to C18G”. Also, in the assay on S. aureus ATCC: 27660 (ATCC: 27660, 18 h), the “S. aureus MBC” value worked out at 3.75 µM and the “S. aureus MIC” value turned out to be 3.75 µM. In addition, in the assay with S. aureus membrane (down through 3.75 µM peptide), the “Percent leakage (PI) of S. aureus membrane” value (from here on “Percent leakage (PI)”) was ~ 90%. Besides, the “Outer membrane permeabilization” value in the assay on E. coli outer membrane is reported as “near maximal permeabilization observed above 3.75 µM”. The “Inner membrane permeabilization” value with E. coli inner membrane is reported as “induced less leakage”. Also, in the assay on B. subtilis ATCC: 6051 (ATCC: 6051, 18 h), the “B. subtilis MBC” value stood at 1.875 µM and the “B. subtilis MIC” value is reported as 1.875 µM.

In the case of ALWHHLLHHLLHSAHHLG-NH2 [C18G-His], the “Binding to 3:1 PC/PG lipid vesicles (shift of Trp emission barycenter)” value in assay [1] is “bound anionic bilayers with higher affinity than zwitterionic bilayers”. Also, in the assay with S. aureus ATCC: 27660 (ATCC: 27660, 18 h), the “S. aureus MBC” value is reported as 15 µM and the “S. aureus MIC” value amounted to 15 µM. Further, in the assay on S. aureus membrane (7.5 µM peptide), the “Percent leakage (PI)” value was greater than 50%. In addition, the “Percent leakage (PI)” value in the assay with S. aureus membrane (15 µM peptide) is given as greater than 50%. In the assay on E. coli outer membrane, the “Outer membrane permeabilization” value is reported as “almost no permeabilization of the outer membrane except at 15 µM”. Also, the “Inner membrane permeabilization” value with E. coli inner membrane was “little to no permeabilization”. Also, in the assay on B. subtilis ATCC: 6051 (ATCC: 6051, 18 h), the “B. subtilis MBC” value is recorded as greater than 15 µM and the “B. subtilis MIC” value is on record as 1.875 µM.

With ALWKKLLKKLLKSAKKLG-NH2 [C18G], in the assay on S. aureus ATCC: 27660 (ATCC: 27660, 18 h), the “S. aureus MBC” value turned out to be 3.75 µM. For the same compound, the “S. aureus MIC” value in the assay on S. aureus ATCC: 27660 (setting [2]) came to 1.875 µM. In addition, the “Outer membrane permeabilization” value with E. coli outer membrane is listed as “near maximal permeabilization observed above 3.75 µM”. For the same compound, the “Inner membrane permeabilization” value with E. coli inner membrane is on record as “highest degree of permeabilization”. For the same compound, in the assay on B. subtilis ATCC: 6051 (1 µL from wells at and above MIC plated on LB-agar, overnight 37 °C), the “B. subtilis MBC” value was 1.875 µM. For the same compound, the “B. subtilis MIC” value in the assay with B. subtilis ATCC: 6051 (setting [2]) worked out at 1.875 µM.

Take `CC(C)C[C@H](NC(=O)[C@H](C)N)C(=O)N[C@@H](Cc1c[nH]c2ccccc12)C(=O)N[C@@H](CCCN)C(=O)N[C@@H](CCCN)C(=O)N[C@@H](CC(C)C)C(=O)N[C@@H](CC(C)C)C(=O)N[C@@H](CCCN)C(=O)N[C@@H](CCCN)C(=O)N[C@@H](CC(C)C)C(=O)N[C@@H](CC(C)C)C(=O)N[C@@H](CCCN)C(=O)N[C@@H](CO)C(=O)N[C@@H](C)C(=O)N[C@@H](CCCN)C(=O)N[C@@H](CCCN)C(=O)N[C@@H](CC(C)C)C(=O)NCC(N)=O` [C18G-Orn] (HELM PEPTIDE1{A.L.W.[Orn].[Orn].L.L.[Orn].[Orn].L.L.[Orn].S.A.[Orn].[Orn].L.G.[am]}$$$$V2.0): in the assay with S. aureus ATCC: 27660 (ATCC: 27660, 18 h), the “S. aureus MBC” value was determined as 1.875 µM and the “S. aureus MIC” value is listed as 1.875 µM. Also, the “Percent leakage (PI)” value with S. aureus membrane (through 1.88 µM peptide) is given as greater than 50%. For the same compound, the “Outer membrane permeabilization” value with E. coli outer membrane is on record as “near maximal permeabilization observed above 3.75 µM”. The “Inner membrane permeabilization” value in the assay on E. coli inner membrane is “very little observed leakage”. In the assay on B. subtilis ATCC: 6051 (ATCC: 6051, 18 h), the “B. subtilis MBC” value was determined as 7.5 µM and the “B. subtilis MIC” value was determined as 3.75 µM.

For the origin of these results see article PMC6017431, “Role of Cationic Side Chains in the Antimicrobial Activity of C18G” (Molecules : A Journal of Synthetic Chemistry and Natural …, 2018).
